Activity calls are given as the source filed them.

One experiment deals with Cytochrome P450 2C19 (Homo sapiens, UniProt P33261). As to the kind of experiment: Cytochrome panel assay with activity outcomes. Panel member name: p450-cyp2c19 Compounds with AC50 equal or less than 10 uM are considered active. The settings on record: read-out: AC50. Type of experiment: functional.
Experiment [1] concerns the target Induced myeloid leukemia cell differentiation protein Mcl-1 (Homo sapiens, UniProt Q07820). It counts as functional.
The target of experiment [2] is T1, Replicative DNA helicase DnaB (Mycobacterium tuberculosis, UniProt P9WMR3).
T1 sequence (P9WMR3 whole entry): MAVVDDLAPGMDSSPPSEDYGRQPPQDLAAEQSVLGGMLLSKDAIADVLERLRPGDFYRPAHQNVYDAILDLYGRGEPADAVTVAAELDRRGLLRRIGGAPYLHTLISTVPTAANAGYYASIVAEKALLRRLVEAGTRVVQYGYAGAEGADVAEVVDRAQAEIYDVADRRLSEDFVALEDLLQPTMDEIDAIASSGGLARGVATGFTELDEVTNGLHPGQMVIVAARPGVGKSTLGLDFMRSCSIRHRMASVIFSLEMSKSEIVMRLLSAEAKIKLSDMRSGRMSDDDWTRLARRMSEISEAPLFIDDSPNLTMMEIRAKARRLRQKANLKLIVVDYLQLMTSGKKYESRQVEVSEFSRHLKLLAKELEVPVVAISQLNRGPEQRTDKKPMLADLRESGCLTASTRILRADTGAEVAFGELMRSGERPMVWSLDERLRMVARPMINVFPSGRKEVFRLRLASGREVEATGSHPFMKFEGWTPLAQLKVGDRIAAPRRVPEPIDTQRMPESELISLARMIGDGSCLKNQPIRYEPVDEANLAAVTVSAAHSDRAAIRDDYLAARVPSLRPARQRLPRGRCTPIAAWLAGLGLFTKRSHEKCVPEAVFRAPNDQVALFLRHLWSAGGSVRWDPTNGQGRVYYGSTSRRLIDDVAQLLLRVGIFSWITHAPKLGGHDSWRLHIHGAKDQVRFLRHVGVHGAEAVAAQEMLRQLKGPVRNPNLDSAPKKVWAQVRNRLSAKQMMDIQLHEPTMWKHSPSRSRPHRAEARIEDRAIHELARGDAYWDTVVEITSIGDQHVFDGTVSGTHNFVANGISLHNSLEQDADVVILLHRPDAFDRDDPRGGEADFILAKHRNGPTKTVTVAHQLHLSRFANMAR
The experiment can be described thus: DnaB intein splicing inhibitors, dose response, biochemical, cell-free fluorescence (AID 449749). It counts as functional.

A further experiment addresses T2, Protein RecA (Mycobacterium tuberculosis, UniProt P9WHJ3).
T2 sequence (P9WHJ3 whole entry): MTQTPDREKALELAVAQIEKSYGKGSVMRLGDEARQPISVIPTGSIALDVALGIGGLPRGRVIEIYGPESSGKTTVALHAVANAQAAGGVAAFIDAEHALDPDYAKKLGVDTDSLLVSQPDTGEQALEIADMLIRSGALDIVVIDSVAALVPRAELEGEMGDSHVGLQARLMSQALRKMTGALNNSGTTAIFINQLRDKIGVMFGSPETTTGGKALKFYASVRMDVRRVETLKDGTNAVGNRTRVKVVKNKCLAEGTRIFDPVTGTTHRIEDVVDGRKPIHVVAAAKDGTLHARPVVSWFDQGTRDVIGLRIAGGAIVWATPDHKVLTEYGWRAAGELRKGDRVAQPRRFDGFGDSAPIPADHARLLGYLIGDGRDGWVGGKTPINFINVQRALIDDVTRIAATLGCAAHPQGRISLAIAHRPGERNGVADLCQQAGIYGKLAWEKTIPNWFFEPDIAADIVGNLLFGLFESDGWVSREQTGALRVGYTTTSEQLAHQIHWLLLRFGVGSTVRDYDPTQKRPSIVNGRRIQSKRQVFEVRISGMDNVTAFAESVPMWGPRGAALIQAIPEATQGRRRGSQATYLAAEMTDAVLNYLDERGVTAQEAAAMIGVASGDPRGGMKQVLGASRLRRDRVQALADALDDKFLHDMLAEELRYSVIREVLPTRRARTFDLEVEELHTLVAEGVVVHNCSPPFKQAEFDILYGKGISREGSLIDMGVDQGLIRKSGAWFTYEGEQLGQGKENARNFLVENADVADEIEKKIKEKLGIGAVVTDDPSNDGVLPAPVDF
As to the kind of experiment: Fluorescence Cell-Free Homogeneous Dose Retest to Identify Inhibitors of RecA-Intein Splicing Activity. [Related pubchem assays (depositor defined):AID2097, AID2223, AID489010, AID492950]. It counts as functional.

In a further experiment the target is Nonstructural protein 1 (Influenza A virus, UniProt Q194T2). Type of experiment: functional, Influenza A virus (A/California/07/2009(H1N1)).
The test system of another experiment is Vero. The experiment can be described thus: cells. Type of experiment: functional. The conditions noted are these: Chlorocebus sabaeus.
The subject of the next experiment is INS1. As to the kind of experiment: beta cell apoptosis inhibitors, cytokine rescue, dose response, luminescence, retest (AID 449756).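 Further: cell death triggered by IL-1 beta plus TNF-alpha plus IFN-gamma mixture; protective hits raise ATP signal compared with cytokine alone wells.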 Type of experiment: functional, cell-based. The conditions noted are these: Rattus norvegicus.
The nature of experiment [3]: cytotoxicity toward NIH3T3 fibroblasts, dose response, counter-screen, cell-based, ATP luminescence, mouse fibroblasts (AID 2010).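 Further: cells exposed to compound for about 90 hours before reading.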 It counts as functional.
A short description of experiment [4]: inhibitors of intracellular T. cruzi replication, confirmation, NIH3T3 host cells, beta-gal luminescence (AID 2044).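 Further: intracellular parasites grown in NIH/3T3 mouse fibroblasts as host cells; luminescent beta-galactosidase reporter signal from transgenic T. cruzi replicating inside host cells; inhibitors lower the luminescence signal.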 It counts as functional, cell-based.
A short description of experiment [5]: intracellular Trypanosoma cruzi inhibitors in host cells – cell-based, plate reader, cherry-pick samples, set 3, dose response (AID 651818).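 Further: compounds incubated with infected cells for about four days.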 It counts as functional.
A short description of experiment [6]: inhibitors of clade B AD8 Env fusion, dose response, cell-based, cherry-pick (AID 652062).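 Further: luciferase signal from cell-cell fusion driven by HIV-1 clade B AD8 Env; potency is for inhibitors of fusion seen as a drop in luminescence.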 Type of experiment: functional.
A further experiment concerns Streptococcus. The experiment can be described thus: Group A Streptococcus viability loss, dose response, counter-screen for streptokinase expression inhibitor project, luminescence, BacTiterGlo (AID 1915).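 Further: potency for reduction of bacterial viability or growth.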 It counts as functional, organism-based. (The purpose of a counterscreen is to sort out artefacts and off-target activity.)
In experiment [7] the test system is Streptococcus sp. 'group A'. As to the kind of experiment: growth inhibition of control SK(-) GAS strain, dose response, counter-screen for streptokinase expression inhibitor project, luminescence, kanamycin, BacTiterGlo, confirmation (AID 1900). It counts as functional, organism-based.

Chain of Induced myeloid leukemia cell differentiation protein Mcl-1 (Q07820 whole entry): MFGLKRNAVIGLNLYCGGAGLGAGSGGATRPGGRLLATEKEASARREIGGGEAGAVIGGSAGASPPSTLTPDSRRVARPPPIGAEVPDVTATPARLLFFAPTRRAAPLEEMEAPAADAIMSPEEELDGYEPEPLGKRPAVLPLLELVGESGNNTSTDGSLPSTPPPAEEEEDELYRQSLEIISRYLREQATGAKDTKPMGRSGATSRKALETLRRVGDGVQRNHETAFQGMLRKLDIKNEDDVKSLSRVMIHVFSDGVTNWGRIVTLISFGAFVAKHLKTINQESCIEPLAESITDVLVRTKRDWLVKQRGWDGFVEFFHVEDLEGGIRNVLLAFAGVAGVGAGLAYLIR
Chain of Cytochrome P450 2C19 (P33261 whole entry): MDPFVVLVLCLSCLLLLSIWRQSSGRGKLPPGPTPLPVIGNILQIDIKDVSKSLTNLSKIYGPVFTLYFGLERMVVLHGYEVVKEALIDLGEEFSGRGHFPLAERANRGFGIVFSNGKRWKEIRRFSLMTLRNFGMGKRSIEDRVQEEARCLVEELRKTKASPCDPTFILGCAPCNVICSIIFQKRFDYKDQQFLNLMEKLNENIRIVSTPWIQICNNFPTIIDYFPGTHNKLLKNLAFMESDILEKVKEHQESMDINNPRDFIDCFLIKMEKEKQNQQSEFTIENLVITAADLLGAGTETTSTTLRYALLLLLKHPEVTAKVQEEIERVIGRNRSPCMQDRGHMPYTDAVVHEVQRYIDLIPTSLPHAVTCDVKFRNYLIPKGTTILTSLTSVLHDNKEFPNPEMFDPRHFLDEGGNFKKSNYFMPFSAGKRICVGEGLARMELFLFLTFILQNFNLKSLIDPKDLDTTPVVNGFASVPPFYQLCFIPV
Chain of Nonstructural protein 1 (Q194T2 whole entry): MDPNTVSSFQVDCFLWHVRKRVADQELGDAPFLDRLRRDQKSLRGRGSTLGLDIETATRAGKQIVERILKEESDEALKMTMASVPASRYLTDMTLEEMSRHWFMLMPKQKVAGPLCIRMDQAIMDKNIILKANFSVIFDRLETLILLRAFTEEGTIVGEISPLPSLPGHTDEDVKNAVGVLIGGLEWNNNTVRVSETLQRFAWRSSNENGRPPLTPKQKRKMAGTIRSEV

A word on the AC50: it is the midpoint of the concentration-response curve, whichever way the signal moves. One may read the IC50 as the concentration at which inhibition is half-maximal. For the molecule `CC(=O)c1ccc(-n2c(CCC(=O)O)ccc2-c2cccs2)cc1`, the AC50 at Cytochrome P450 2C19 is 11.2 µM (inconclusive). For the same molecule, the IC50 in experiment [1] is given as 9.23 µM (not active).
As for `COc1ccc(C(=O)C[n+]2ccc(-c3nnc4n3CCCCC4)cc2)cc1`, the IC50 in experiment [1] was > 54 µM (active).
In general, EC50 refers to the concentration at which the effect is half-maximal. Regarding `Cc1ccc(-n2nc(C)c3c2OC(N)=C(C#N)C3c2ccc(C)o2)cc1` (configuration not stated), the AC50 in [2] was 5.9 µM (active). Further, the 50% effective concentration (EC50) on Protein RecA is 25.7 µM (inconclusive). Also, the IC50 at Nonstructural protein 1 is 24.9 µM (active).
Broadly, the CC50 is the concentration giving 50% cytotoxicity. `CCN1CCN(Cc2ccc(NC(=O)c3cc(NC(=O)N4CCNC4=O)cc(OC)c3)cc2C(F)(F)F)CC1`: the CC50 in the experiment with Vero is > 25 µM (active).
As for `CCCN1C(=O)S/C(=C/c2ccc(N3CCOCC3)o2)C1=O`, the CC50 in the experiment with Vero was > 25 µM (active).
Regarding `C/C(=C\c1ccco1)C1Nc2cccc3cccc(c23)N1`, the IC50 in [1] is 8.61 µM (active).
As for `Cc1[nH]c2ccccc2c1CN1CCC(Cc2ccccc2)CC1`, the AC50 with INS1 was 3.46 µM (active). In addition, the CC50 in the experiment with Vero is > 25 µM (active). Also, the figures for the concentration for a half-maximal effect (EC50) in [3] and in experiment [4] were 10.9 µM (active) and 212 nM (active), respectively.
For the molecule `C[C@@H]1CN([C@H](C)CO)C(=O)Cc2cc(NS(=O)(=O)c3ccc(Cl)cc3)ccc2O[C@H]1CN(C)Cc1ccc2c(c1)OCO2`, in experiment [5], the AC50 is 3.53 µM (active).
Regarding `Cc1noc(C)c1NC(=O)Nc1cccc2c1O[C@@H](CN(C)S(C)(=O)=O)[C@@H](C)CN([C@@H](C)CO)C2=O`, in experiment [5], the AC50 is 1.01 µM (active).
As for `C[C@H]1CN([C@@H](C)CO)C(=O)Cc2cc(NC(=O)Nc3ccc(C(F)(F)F)cc3)ccc2O[C@H]1CN(C)Cc1ccccc1`, the AC50 in experiment [5] was 3.08 µM (active).
Regarding `C[C@@H]1CCCCO[C@H](CN(C)Cc2ccc(Cl)c(Cl)c2)[C@@H](C)CN([C@H](C)CO)C(=O)c2cc(NC(=O)Nc3ccc4c(c3)OCO4)ccc2O1`, the AC50 in experiment [5] is 4.02 µM (active).
As for `C[C@H](CO)N1C[C@H](C)[C@@H](CN(C)C(=O)Nc2cccc3ccccc23)Oc2c(NC(=O)Nc3ccc4c(c3)OCO4)cccc2C1=O`, the concentration at half-maximal activity (AC50) in [5] is 6.85 µM (active).
Turning to `C[C@H](CO)N1C[C@H](C)[C@@H](CN(C)Cc2ccccc2)Oc2c(NC(=O)CCCCCC(=O)Nc3ccccc3N)cccc2C1=O`, in experiment [5], the AC50 is 3.24 µM (active).
Still for that read-out and setting: in the case of `C[C@@H]1CN([C@@H](C)CO)C(=O)c2cccc(NC(=O)Nc3ccc(C(F)(F)F)cc3)c2O[C@@H]1CN(C)Cc1ccc(Oc2ccccc2)cc1` it was 6.09 µM (active).
`C[C@@H]1CCCCO[C@@H](CN(C)Cc2ccc(Cl)c(Cl)c2)[C@@H](C)CN([C@H](C)CO)C(=O)c2cc(NC(=O)Nc3ccc(F)cc3)ccc2O1`: the AC50 in [5] was 2.38 µM (active).
For the molecule `C[C@H](CO)N1C[C@H](C)[C@@H](CN(C)Cc2ccc(C(F)(F)F)cc2)Oc2c(NS(=O)(=O)c3ccccc3)cccc2C1=O`, the AC50 in experiment [5] was 8.8 µM (active).
With `COc1ccc(NC(=O)Nc2cccc3c2O[C@H](CN(C)Cc2ccc(C(=O)Nc4ccccc4N)cc2)[C@@H](C)CN([C@@H](C)CO)C3=O)cc1`, the half-maximal activity concentration (AC50) in experiment [5] was 1.92 µM (active).
Take `C#CCn1c(=O)c2c(ncn2C)n(C)c1=O`: the AC50 in experiment [6] is 43.1 µM (active).
For the molecule `O=c1c(/C=N/c2cc(O)nc(S)n2)coc2c1ccc1ccccc12`, the 50% effective concentration (EC50) was 20.3 µM (active) with Streptococcus and 752 nM (active) in experiment [7]. For the same molecule, in experiment [1], the IC50 is 4.68 µM (active).

For the origin of these results see ChEMBL document CHEMBL1201862, “PubChem BioAssay data set” (2004).
